We go through 6 compounds from paper PMC5469366 (Journal of medicinal chemistry, 2017).

“And” between values parts separate entries of the source, which are not always exact repeats. Identical values can stand only once.

For data set [1], the system named is A. baumannii (ATCC19606). Kind of data set: Spontaneous mutation frequency on agar. Format: cell-based, Acinetobacter baumannii. The settings on record: 4xMIC concentration.
Data set [2] has as its system MDR-A. baumannii ATCC BAA-1800. Nature of the data set: MIC/MBC broth dilution, MDR A. baumannii. Format: cell-based, Acinetobacter baumannii. The settings on record: for MBC / MIC: MDR-A. baumannii ATCC BAA-1800, broth dilution.
In data set [3] the test system is A. baumannii (ATCC19606). Nature of the data set: Mouse septicemia model, survival. Format: in vivo, C57BL/6 mice.
Data set [4] can be described thus: Caco-2 permeability. Format: in vitro ADME. The settings on record: human.
Data set [5] relates to A. baumannii ATCC 19606. Nature of the data set: MIC/MBC broth dilution, drug sensitive A. baumannii. The class given is cell-based, Acinetobacter baumannii. Conditions: for MBC: kills 99.9% of bacteria.
For data set [6], the system named is Vero cells. Kind of data set: Cytotoxicity. The settings on record: MTT assay. The class given is cell-based, monkey.
The subject of data set [7] is A. baumannii (ATCC 19606). Nature of the data set: Micro dilution broth checkerboard. Format: cell-based, Acinetobacter baumannii. Conditions: wells at growth–no growth interface.
The conditions of data set [8]: in vivo; cited from earlier work.
Where [9] appears, read: combination of valnemulin and doxycycline.

In the case of `C=C[C@]1(C)C[C@@H](OC(=O)CSC(C)(C)CNC(=O)[C@H](N)C(C)C)[C@]2(C)[C@H](C)CC[C@]3(CC[C@@H](O)[C@H]32)[C@@H](C)[C@@H]1O` [compound 1, (3R,3aR,4R,5R,7S,8S,9R,9aS,12R)-3,8-dihydroxy-4,7,9,12-tetramethyl-7-vinyldecahydro-4,9a-propanocyclopenta[8]annulen-5-yl 2-((1-((R)-2-amino-3-methylbutanamido)-2-methylpropan-2-yl)thio)acetate], the “spontaneous resistance mutation frequency” value in data set [1] is given as 1×10^−8. The “concentrations at which the MDR strain was killed” value in data set [2] (A. baumannii ATCC BAA-1800) lay in the range of 6.25 to 12.5 µg/mL. The “effectiveness in mouse septicemia model” value in data set [3] (IP single dose, 2 to 60 mg/kg) was “showed effectiveness in the same in vivo studies, but required higher dosage than that with 1-Dox35/1”. Besides, the Papp in data set [4] was greater than 1 ×10⁻⁶ cm/s.
Take “(3R,3aR,4R,5R,7S,8S,9R,9aS,12R)-3,8-dihydroxy-4,7,9,12-tetramethyl-7-vinyldecahydro-4,9a-propanocyclopenta[8]annulen-5-yl 2-((1-((R)-2-((S)-2,5-diaminopentanamido)-3-methylbutanamido)-2-methylpropan-2-yl)thio)acetate [compound 2]”: the minimum inhibitory concentration (MIC) in data set [5] and in data set [2] was 3.13 µg/mL in each case. Moreover, the MBC in data set [5] and in data set [2] was greater than 12.5 µg/mL each time.
For colistin, in data set [6], the “Cytotoxicity IC50” value is greater than 200 µg/mL. In data set [5], this compound registered an MIC of 3.13 µg/mL and an MBC of 6.25 µg/mL. In data set [2], the MBC was 25.0 µg/mL and the MIC is greater than 12.5 µg/mL.
`NC[C@H]1O[C@H](O[C@H]2[C@H](O)[C@@H](O[C@H]3O[C@H](CO)[C@@H](O)[C@H](N)[C@H]3O)[C@H](N)C[C@@H]2N)[C@H](N)C[C@@H]1O` [Tobramycin, tobramycin]: in data set [3] (6.0 mg/kg dose IP), the “survival of mice” value is “survived the mice”.
Consider `C=C[C@]1(C)C[C@@H](OC(=O)CSC(C)(C)CNC(=O)[C@H](N)C(C)C)[C@]2(C)[C@H](C)CC[C@]3(CCC(=O)[C@H]32)[C@@H](C)[C@@H]1O` [Valnemulin, valnemulin], for which the “MIC CA and CB (concentrations of A and B in combination)” value in data set [7] (setting [9]) was 0.78 µg/mL and 1.56 µg/mL. Moreover, the half-lives in plasma in data set [8] was 1.3 to 2.9 h.
`C[C@H]1c2cccc(O)c2C(=O)C2=C(O)[C@]3(O)C(=O)C(C(N)=O)=C(O)[C@@H](N(C)C)[C@@H]3[C@@H](O)[C@@H]21.O` [Doxycycline, doxycycline]: the “MIC CA and CB (concentrations of A and B in combination)” value in data set [7] (combination of 1 and doxycycline) is 0.025 µg/mL and 0.05 µg/mL; in data set [7] (setting [9]) it was 0.025 µg/mL and 0.05 µg/mL.
